Reference: article PMC4038168 (Chemical communications (Cambridge, England), 2014)
Entries after “also recorded” stand apart in the source; their conditions may differ.

What was measured:
rat FAAH (r-FAAH) = target: T1, rat FAAH (r-FAAH) (Rattus norvegicus, UniProt P97612); assay: rat FAAH inhibition; assay type: biochemical
T1 sequence (P97612 1-579): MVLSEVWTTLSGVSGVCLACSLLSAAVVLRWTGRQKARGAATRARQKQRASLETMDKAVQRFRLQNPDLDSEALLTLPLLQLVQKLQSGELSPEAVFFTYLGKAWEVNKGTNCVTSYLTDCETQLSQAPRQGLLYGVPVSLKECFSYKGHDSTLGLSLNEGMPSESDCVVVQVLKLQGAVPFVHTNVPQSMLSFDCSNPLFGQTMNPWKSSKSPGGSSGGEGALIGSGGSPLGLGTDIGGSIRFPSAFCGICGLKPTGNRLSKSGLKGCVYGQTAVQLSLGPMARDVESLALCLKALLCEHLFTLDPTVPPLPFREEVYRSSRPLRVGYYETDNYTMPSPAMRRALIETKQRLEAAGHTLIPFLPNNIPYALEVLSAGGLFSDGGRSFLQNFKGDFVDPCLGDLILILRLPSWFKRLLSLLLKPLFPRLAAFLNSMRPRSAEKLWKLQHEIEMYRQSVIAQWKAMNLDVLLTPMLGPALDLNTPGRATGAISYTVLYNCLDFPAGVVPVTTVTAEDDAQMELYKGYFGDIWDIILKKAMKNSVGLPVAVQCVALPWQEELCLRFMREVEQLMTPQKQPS

human FAAH (h-FAAH) = target: T2, human FAAH (h-FAAH) (Homo sapiens, UniProt O00519); assay: human FAAH inhibition; assay type: biochemical
T2 sequence (O00519 1-579): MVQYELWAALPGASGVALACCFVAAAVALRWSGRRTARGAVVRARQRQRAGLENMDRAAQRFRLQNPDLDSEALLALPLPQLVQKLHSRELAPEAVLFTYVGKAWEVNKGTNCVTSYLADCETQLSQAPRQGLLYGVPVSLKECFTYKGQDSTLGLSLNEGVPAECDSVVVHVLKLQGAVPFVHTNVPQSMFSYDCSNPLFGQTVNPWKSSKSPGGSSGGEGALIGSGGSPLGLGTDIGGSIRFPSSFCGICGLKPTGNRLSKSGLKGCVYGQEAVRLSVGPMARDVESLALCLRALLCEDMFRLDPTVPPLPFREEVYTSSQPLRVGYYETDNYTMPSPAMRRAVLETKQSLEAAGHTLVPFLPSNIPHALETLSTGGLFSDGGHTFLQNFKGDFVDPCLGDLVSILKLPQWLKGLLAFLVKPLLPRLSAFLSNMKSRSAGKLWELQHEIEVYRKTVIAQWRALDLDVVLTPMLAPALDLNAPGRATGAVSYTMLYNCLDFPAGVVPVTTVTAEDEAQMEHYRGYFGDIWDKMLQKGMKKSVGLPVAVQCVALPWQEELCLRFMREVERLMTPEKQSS

cannabinoid receptor CB1 [1] = target: T3, cannabinoid receptor CB1 (Homo sapiens, UniProt P21554); assay: CB1 functional assay; assay type: cell-based
T3 sequence (P21554 whole entry): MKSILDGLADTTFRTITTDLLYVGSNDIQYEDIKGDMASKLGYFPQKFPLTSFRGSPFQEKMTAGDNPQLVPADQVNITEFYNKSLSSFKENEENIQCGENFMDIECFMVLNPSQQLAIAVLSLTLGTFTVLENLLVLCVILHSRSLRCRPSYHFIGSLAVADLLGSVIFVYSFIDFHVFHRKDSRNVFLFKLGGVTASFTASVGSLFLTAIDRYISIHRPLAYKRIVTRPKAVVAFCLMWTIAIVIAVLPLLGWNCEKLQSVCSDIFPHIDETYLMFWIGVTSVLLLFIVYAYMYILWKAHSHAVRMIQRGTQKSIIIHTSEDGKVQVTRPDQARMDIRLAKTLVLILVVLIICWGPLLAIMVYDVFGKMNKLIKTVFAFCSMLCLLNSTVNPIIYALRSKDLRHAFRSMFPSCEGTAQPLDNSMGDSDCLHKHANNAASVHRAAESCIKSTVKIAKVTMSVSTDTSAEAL

human DRD3 = human DRD3 (Homo sapiens, UniProt P35462); assay: human DRD3 functional assay; assay type: cell-based
human DRD3, sequence (P35462 whole entry): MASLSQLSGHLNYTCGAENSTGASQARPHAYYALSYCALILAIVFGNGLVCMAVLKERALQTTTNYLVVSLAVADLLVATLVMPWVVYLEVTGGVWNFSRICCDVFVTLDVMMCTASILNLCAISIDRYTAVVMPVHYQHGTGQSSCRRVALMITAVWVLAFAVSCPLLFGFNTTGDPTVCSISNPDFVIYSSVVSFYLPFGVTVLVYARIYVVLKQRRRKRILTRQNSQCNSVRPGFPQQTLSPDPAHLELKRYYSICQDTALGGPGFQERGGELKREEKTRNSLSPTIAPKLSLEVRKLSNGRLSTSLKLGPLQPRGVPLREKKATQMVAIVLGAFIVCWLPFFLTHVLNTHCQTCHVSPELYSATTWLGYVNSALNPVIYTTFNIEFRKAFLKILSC

cannabinoid receptor CB1 [2] = target: T3, cannabinoid receptor CB1; conditions: cited from earlier work

SMILES	inhibitory activity on r-FAAH (in words) (rat FAAH (r-FAAH))	inhibitory activity on h-FAAH (in words) (human FAAH (h-FAAH))	CB1 activity (in words) (cannabinoid receptor CB1 [1])	EC50 (cannabinoid receptor CB1 [1]; read-out: CB1 EC50) [µM]	activity on DRD3 (in words) (human DRD3)	effect on CB1 (in words) (cannabinoid receptor CB1 [2])
O=C(NCCCCN1CCN(c2cccc(Cl)c2Cl)CC1)c1ccc(-c2ccccn2)cc1 [Compound 2, CJB090]	did not show any significant inhibitory activity	did not show any significant inhibitory activity	rather potent CB1 agonist	0.84		
COc1ccccc1N1CCN(CCCCNC(=O)c2ccc3ccccc3c2)CC1 [Compound 3, BP-897]	did not show any significant inhibitory activity	did not show any significant inhibitory activity	completely devoid of CB1 activity; also recorded: did not show any activity			
NC(=O)c1cccc(-c2cccc(OC(=O)NC3CCCCC3)c2)c1 [Compound 5, URB597]					no activity	no effect
